Structures can show the parent of a compound that is named as a salt.
Target: T1, OR51E1 olfactory receptor (Homo sapiens, UniProt Q8TCB6, K299R)
T1 construct: expressed in transfected cells
T1 sequence (Q8TCB6 2-318 K299R limits assumed): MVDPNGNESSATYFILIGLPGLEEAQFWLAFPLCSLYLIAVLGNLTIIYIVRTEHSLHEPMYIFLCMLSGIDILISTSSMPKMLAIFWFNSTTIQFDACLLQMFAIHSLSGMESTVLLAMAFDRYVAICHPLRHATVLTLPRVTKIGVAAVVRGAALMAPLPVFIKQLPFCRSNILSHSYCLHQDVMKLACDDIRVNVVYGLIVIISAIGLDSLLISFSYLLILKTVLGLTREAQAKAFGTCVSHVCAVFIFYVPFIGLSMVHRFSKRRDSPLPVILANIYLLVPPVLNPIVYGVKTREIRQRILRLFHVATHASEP
Assay: Butyric acid olfactory receptor antagonist cell-based inhibitory dose-response assay

[1] = Table 4, butyric acid at single activating concentration (EC94)
[2] = Table 5, agonist concentration not given
[3] = Table 5, butyric acid olfactory receptor antagonists, agonist concentration not given

| SMILES | Inhibition (%) (Table 4, butyric acid at EC94) | IC50 [1] | Inhibition (%) [2] | IC50 [3] |
| --- | --- | --- | --- | --- |
| CC(=O)OC1C(C)(C)CCCC12CC(C)=C(C)C2 (centres unmarked) [(2,3,9,9-tetramethylspiro[4.5]dec-2-en-10-yl) acetate] | 116% | > 600 µM |  |  |
| CC1=C(C)CC2(CCC(C)(C)C2=O)C1 [2,3,8,8-tetramethylspiro[4.4]non-2-en-9-one] | 10% | 198 µM |  |  |
| CC(=O)OCC1(C)C(C)C(C)C23CCC(CC12)C3 (centres unmarked) [(2,3,4-trimethyl-4-tricyclo[5.2.1.0^{1,5}]decanyl)methyl acetate] |  |  | 27% | 60.8 µM |
| CC1C=CCC(C)C1C(O)C(C)(C)C (centres unmarked) [1-(2,6-dimethylcyclohex-3-en-1-yl)-2,2-dimethylpropan-1-ol] | 31% | 321 µM |  |  |
| CC(=O)[C@@]1(C)C(C)[C@H](C)[C@@]23CC[C@H](CC12)C3 (some centres unmarked) [1-[(1~{S},2~{S},4~{S},7~{R})-2,3,4-trimethyl-4-tricyclo[5.2.1.0^{1,5}]decanyl]ethanone] |  |  |  | 32.6 µM |
| COC1C(C)(C)CCC12CC=CC2 (centres unmarked) [9-methoxy-8,8-dimethylspiro[4.4]non-2-ene] | 100% | 238 µM |  |  |
| CC(=O)C1(C)CC(C)C23CCC(CC12)C3 (centres unmarked) [1-(2,4-dimethyl-4-tricyclo[5.2.1.0^{1,5}]decanyl)ethanone] |  |  | 26% | 60.5 µM |
| CC1CC(C)(C=NO)C2C[C@H]3CC[C@]12C3 (some centres unmarked) [~{N}-[[(1~{S},7~{R})-2,4-dimethyl-4-tricyclo[5.2.1.0^{1,5}]decanyl]methylidene]hydroxylamine] |  |  |  | 88.5 µM |
| CC(=O)OC(C)C1(C)CC(C)C23CCC(CC12)C3 (centres unmarked) [1-(2,4-dimethyl-4-tricyclo[5.2.1.0^{1,5}]decanyl)ethyl acetate] |  |  | 34% | 54.8 µM |
| CC1C(C)C23CCC(CC2C1(C)C=O)C3 (centres unmarked) [2,3,4-trimethyltricyclo[5.2.1.0^{1,5}]decane-4-carbaldehyde] |  |  | 28% | 270 µM |
| CC(=O)OC1C(C)(C)CCCC12CC(C)(C)C(C)(C)C2 (centres unmarked) [(2,2,3,3,9,9-hexamethylspiro[4.5]decan-10-yl) acetate] | 39% | 425 µM |  |  |
| COC1C(C)(C)CCC12CCCC2 (centres unmarked) [4-methoxy-3,3-dimethylspiro[4.4]nonane] | 105% | 337 µM |  |  |
| CC(=NO)C1(C)C(C)C(C)[C@]23CC[C@H](CC12)C3 (some centres unmarked) [~{N}-[1-[(1~{R},7~{R})-2,3,4-trimethyl-4-tricyclo[5.2.1.0^{1,5}]decanyl]ethylidene]hydroxylamine] |  |  |  | 79.7 µM |
| CC(=O)OC(C)C1CC(C)C23CCC(CC12)C3 (centres unmarked) [1-(2-methyl-4-tricyclo[5.2.1.0^{1,5}]decanyl)ethyl acetate] |  |  | 23% | 97 µM |
| CC(=O)OC(C1C(C)CC(C)CC1C)C(C)(C)C (centres unmarked) [[2,2-dimethyl-1-(2,4,6-trimethylcyclohexyl)propyl] acetate] | 101% | 242 µM |  |  |
| CC(=NO)C1C(C)C(C)C23CCC(CC12)C3 (centres unmarked) [~{N}-[1-[(1~{S},7~{R})-2,3-dimethyl-4-tricyclo[5.2.1.0^{1,5}]decanyl]ethylidene]hydroxylamine] |  |  | 19% | 76.6 µM |
| CC1=CCC2(CCCCC2O)C(C(C)C)C1 (centres unmarked) [3-methyl-5-propan-2-ylspiro[5.5]undec-2-en-11-ol] | 144% | 366 µM |  |  |

Continued by falling IC50 [1], values first:

| Inhibition (%) (Table 4, butyric acid at EC94) | IC50 [1] | Inhibition (%) [2] | IC50 [3] | SMILES |
| --- | --- | --- | --- | --- |
|  | 170 µM |  |  | CC(=O)O[C@H]([C@H]1CCCC[C@@H]1C)C(C)(C)C (racemic) [[(1~{R})-2,2-dimethyl-1-[(1~{S},2~{S})-2-methylcyclohexyl]propyl] acetate] |
| 23% | 135 µM |  |  | CC1(C)CCCC2(CC=CC2)C1=O [9,9-dimethylspiro[4.5]dec-2-en-10-one] |
| 110% | 125 µM |  |  | C=C(C)CC1(CC(=C)C)CCCC(C)(C)C1O (centres unmarked) [2,2-dimethyl-6,6-bis(2-methylprop-2-enyl)cyclohexan-1-ol] |
| 33% | 120 µM |  |  | COC1C(C)(C)CCCC12CC=CC2 (centres unmarked) [10-methoxy-9,9-dimethylspiro[4.5]dec-2-ene] |
| 63% | 110 µM |  |  | CC1=CC(C)C2(CCCC(C)(C)C2=O)C1 (centres unmarked) [2,4,9,9-tetramethylspiro[4.5]dec-2-en-10-one] |
| 61% | 100 µM |  |  | C=CCC1(OC)C(C)CCCC1C (centres unmarked) [1-methoxy-2,6-dimethyl-1-prop-2-enylcyclohexane] |
| 32% | 90.3 µM |  |  | CC(=O)OC1C(C)(C)CCCC12CC=CC2 (centres unmarked) [(9,9-dimethylspiro[4.5]dec-2-en-10-yl) acetate] |
| 22% | 81.6 µM |  |  | CC1=CC(C)C2(CCCC(C)(C)C2O)C1 (centres unmarked) [2,4,9,9-tetramethylspiro[4.5]dec-2-en-10-ol] |
| 16% | 78.7 µM |  |  | CC1=C(C)CC2(CCCC(C)(C)C2O)C1 (centres unmarked) [2,3,9,9-tetramethylspiro[4.5]dec-2-en-10-ol] |
| 54% | 76.9 µM |  |  | C[C@H]1CCCC2(CCCC[C@@H]2C)[C@@H]1O (single isomer, unassigned) [(4~{S},5~{R},6~{S},11~{S})-4,11-dimethylspiro[5.5]undecan-5-ol] |
| 115% | 76.4 µM |  |  | C=CCC1(C(C)C=C)CCCC(C)(C)C1=O (centres unmarked) [2-but-3-en-2-yl-6,6-dimethyl-2-prop-2-enylcyclohexan-1-one] |
| 37% | 75.7 µM |  |  | C=C1C(C)(C)CCCC12CC1(C)OC1(C)C2 (centres unmarked) [1,1′,1′,5-tetramethyl-2′-methylidenespiro[6-oxabicyclo[3.1.0]hexane-3,3′-cyclohexane]] |
| 72% | 72.3 µM |  |  | CC(=O)OC1C(C)(C)CCCC12C(C)C=CCC2C (centres unmarked) [(1,5,10,10-tetramethylspiro[5.5]undec-3-en-11-yl) acetate] |
| 104% | 71.4 µM |  |  | CC(=O)OC1C(C)(C)CCCC12CC=C(C)CC2C (centres unmarked) [(3,5,10,10-tetramethylspiro[5.5]undec-2-en-11-yl) acetate] |
| 52% | 68.8 µM |  |  | CC1CCCCC12CCCCC2O (centres unmarked) [11-methylspiro[5.5]undecan-5-ol] |
| 89% | 52.6 µM |  |  | CC(=O)OC(C1C(C)C=C(C)CC1C)C(C)(C)C (stereo not drawn) [[2,2-dimethyl-1-(2,4,6-trimethylcyclohex-3-en-l-yl)propyl] acetate] |
| 82% | 51.7 µM |  |  | C=C(C)CC1(CC(=C)C)CCC(C)(C)C1=O [2,2-dimethyl-5,5-bis(2-methylprop-2-enyl)cyclopentan-1-one] |
| 103% | 46.6 µM |  |  | C=C(C)CC1(CC(=C)C)CCCC(C)(C)C1=O [2,2-dimethyl-6,6-bis(2-methylprop-2-enyl)cyclohexan-1-one] |
| 129% | 44.4 µM |  |  | CC1CC=CCC12CCCC(C)(C)C2OC=O (centres unmarked) [(5,10,10-trimethylspiro[5.5]undec-2-en-11-yl) formate] |
| 91% | 44.1 µM |  |  | CC1(C)CCCC2(CC=CC2)C1O (centres unmarked) [9,9-dimethylspiro[4.5]dec-2-en-10-ol] |
| 119% | 35.1 µM |  |  | C=C(C)CC1(CC(=C)C)CCC(C)(C)C1O (centres unmarked) [2,2-dimethyl-5,5-bis(2-methylprop-2-enyl)cyclopentan-1-ol] |
| 69% | 25.9 µM |  |  | CC1=C(C)CC2(CCCC(C)(C)C2OC=O)C1 (centres unmarked) [(2,3,9,9-tetramethylspiro[4.5]dec-2-en-10-yl) formate] |
